Among the data in patent publication US12473282B2, “Biphenyl fluorine double bond derivative, preparation method therefor, and pharmaceutical application thereof” (Abbisko Therapeutics Co., Ltd., priority 2020, dated 2025) are IC50 and EC50 values, retold here.

Usually IC50 stands for the concentration needed to halve the response being measured. Read a low IC50 as higher potency. In general, EC50 refers to the concentration giving half of the maximal effect.

For assay [1], the target named is interaction between PD-1 and PD-L1 (Homo sapiens (Human), UniProt Q9NZQ7). The experiment in a line: PD1-PDL1 HTRF binding activity test (Cisbio PD-1/PD-L1 binding assay kit). As for the experimental part:
I. PD1-PDL1 HTRF Binding Activity Test
The effect of compounds of the examples of the present invention on the interaction between PD-1 and PD-L1 was determined by the PD-1/PD-L1 binding assay kit from Cisbio (#64ICP01PEG or 64ICP01PEH). The detailed experimental process was as follows: • 1. Pre-diluted compound solution, 4 μL of Tag1-PD-L1 and 4 μL of Tag2-PD1 were added to each well of a 384-well plate; • 2. After the mixture was incubated at room temperature for 15 min, 5 μL of anti-Tag1-Eu3+ antibody and 5 μL of anti-Tag2-XL665 antibody were then added; • 3. After incubated for 2 hrs at room temperature or overnight at 4° C., plates were read on Envision of Pelkin Elmer; and readings at 665 nm and 620 nm were recorded, and the ratio of the two readings was taken as a reading for each well; • 4. The reading of each well after compound treatment was compared with the reading of DMSO treated wells to obtain the percent inhibition of the compound; • 5. IC50 values of compounds and positive compounds of the examples of the present invention were determined by non-linear regression analysis of percent inhibition at different compound concentrations. II. Jurkat Reporter Gene Cellular Assay
(Time-resolved FRET reads energy transfer from a long-lived donor to a nearby acceptor.)

Assay [2] can be described thus: Jurkat reporter gene cellular assay. Type of assay: cell-based. The note with it: Homo sapiens; Jurkat/NF-κB-luc/PD1 + Raji-PD-L1 coculture, OKT3 1 μg/mL, 6 hrs, activation fold; read-out: Cell Activity EC50. As for the experimental part:
The effect of compounds of the examples of the present invention and positive compounds on the interaction between PD-1 and PD-L1 expressed on cell surfaces, and the related influence on T cell functions, were determined by a Jurkat reporter gene cellular assay.
Briefly, the reporter gene plasmid of NF-κB-luc and the plasmid of human PD-1 were transfected into Jurkat cells to establish a stably transfected cell line capable of stably expressing both PD-1 and NF-κB-Luc reporter genes; the expression level of PD-1 on the cell surface was confirmed by flow cytometry; and the expression of the reporter gene was confirmed via the response of the reporter gene stimulated by OKT-3 and Raiji cells.
In addition, the plasmid of human PD-L1 was transfected into Raji cells to obtain a cell line capable of stably expressing PD-L1. Jurkat/NF-κB-luc/PD1 cells and Raji-PD-L1 cells were then cocultured and stimulated with OKT-3. On this basis, the compounds were added, and the enhancement of the signal pathway of T cell activation by the inhibitory effect of the compounds on the interaction between PD-1 and PD-L1 was evaluated by readings of reporter gene responses. The specific experimental process was as follows: • 1. 30 μL of compound or antibody solution was added to each well of a white 96-well plate (corning, 3610) at different diluted concentrations, and 10 μL of OKT3 (Biolegend, 317326) was then added (the final concentration of OKT3: 1 μg/mL); • 2. 20 μL of Raji-PD-L1 cell suspension was added to each well with 5*10^4 cells for each well, and was incubated in an incubator for 20 min; • 3. 20 μL of Jurkat/NF-Kb-luc/PD-1 cell suspension was added to each well with 5*10^4 cells for each well, and well mixed, and 6 hrs later, Bright-glo (Promega, E2620) was applied and plates were read on Envision; • 4. The reading of each well treated with the compound was compared with the reading of each well treated with DMSO to obtain the activation fold of the compound; • 5. EC50 values of compounds and positive compounds of the examples of the present invention were determined by non-linear regression analysis of activation folds at different compound concentrations.
In general terms: In a reporter assay the amount or activity of a reporter protein is the signal.

Sequence of interaction between PD-1 and PD-L1 (Q9NZQ7 19-238): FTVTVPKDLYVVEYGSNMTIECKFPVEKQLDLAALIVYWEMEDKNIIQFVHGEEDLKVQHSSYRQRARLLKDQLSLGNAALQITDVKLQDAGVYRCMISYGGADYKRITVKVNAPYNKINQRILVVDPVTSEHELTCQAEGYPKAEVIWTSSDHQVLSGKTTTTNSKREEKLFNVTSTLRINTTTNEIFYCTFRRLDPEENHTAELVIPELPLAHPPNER

In assay [1], `C[C@@H](O)CN1CCc2c(nc(/C(F)=C/c3cccc(-c4cccc(NC(=O)c5nc6c(n5C)CCN(CCC57CCC(C(=O)O)(CC5)C7)C6)c4Cl)c3Cl)n2C)C1` [Example 7, (R,Z)-4-(2-(2-((2,2′-dichloro-3′-(2-fluoro-2-(5-(2-hydroxypropyl)-1-methyl-4,5,6,7-tetrahydro-1H-imidazo[4,5-c]pyridin-2-yl)vinyl)-[1,1′-biphenyl]-3-yl)carbamoyl)-1-methyl-1,4,6,7-tetrahydro-5H-imidazo[4,5-c]pyridin-5-yl)ethyl)bicyclo[2.2.1]heptane-1-carboxylic acid] had an IC50 of 0.419 nM. In addition, the EC50 in assay [2] worked out at 62.2 nM.
`CC(C)N1CCc2c(nc(/C(F)=C/c3cccc(-c4cccc(NC(=O)c5nc6c(n5C)CCN(CCC57CCC(C(=O)O)(CC5)C7)C6)c4Cl)c3Cl)n2C)C1` [Example 8, (Z)-4-(2-(2-((2,2′-dichloro-3′-(2-fluoro-2-(5-isopropyl-1-methyl-4,5,6,7-tetrahydro-1H-imidazo[4,5-c]pyridin-2-yl)vinyl)-[1,1′-biphenyl]-3-yl)carbamoyl)-1-methyl-1,4,6,7-tetrahydro-5H-imidazo[4,5-c]pyridin-5-yl)ethyl)bicyclo[2.2.1]heptane-1-carboxylic acid] returned an IC50 in assay [1] of 0.516 nM. Further, the EC50 in assay [2] was 97.5 nM.
The compound `COc1cc(/C(F)=C/c2cccc(-c3cccc(NC(=O)c4nc5c(n4C)CCN(CCC46CCC(C(=O)O)(CC4)C6)C5)c3Cl)c2Cl)ncc1CNCCO` [Example 16, (Z)-4-(2-(2-((2,2′-dichloro-3′-(2-fluoro-2-(5-(((2-hydroxyethyl)amino)methyl)-4-methoxypyridin-2-yl)vinyl)-[1,1′-biphenyl]-3-yl)carbamoyl)-1-methyl-1,4,6,7-tetrahydro-5H-imidazo[4,5-c]pyridin-5-yl)ethyl)bicyclo[2.2.1]heptane-1-carboxylic acid] returned an IC50 in assay [1] of 0.191 nM. In assay [2], the EC50 came out at 133 nM.
Regarding `COc1cc(/C(F)=C/c2cccc(-c3cccc(NC(=O)c4nc5c(n4C)CCN(CCC46CCC(C(=O)O)(CC4)C6)C5)c3Cl)c2Cl)ncc1CN1Cc2cccnc2C1` [Example 68, (Z)-4-(2-(2-((2,2′-dichloro-3′-(2-(5-((5,7-dihydro-6H-pyrrolo[3,4-b]pyridin-6-yl)methyl)-4-methoxypyridin-2-yl)-2-fluorovinyl)-[1,1′-biphenyl]-3-yl)carbamoyl)-1-methyl-1,4,6,7-tetrahydro-5H-imidazo [4,5-c]pyridin-5-yl)ethyl)bicyclo[2.2.1]heptane-1-carboxylic acid], the EC50 in assay [2] came to 954 nM.
Turning to `COc1cc(/C(F)=C/c2cccc(-c3cccc(NC(=O)c4nc5c(n4C)CCN(CCC46CCC(C(=O)O)(CC4)C6)C5)c3Cl)c2Cl)ncc1CN1CCO[C@@H](CO)C1` [Example 69, (R,Z)-4-(2-(2-((2,2′-dichloro-3′-(2-fluoro-2-(5-((2-(hydroxymethyl)morpholino)methyl)-4-methoxypyridin-2-yl)vinyl)-[1,1′-biphenyl]-3-yl)carbamoyl)-1-methyl-1,4,6,7-tetrahydro-5H-imidazo[4,5-c]pyridin-5-yl)ethyl)bicyclo[2.2.1]heptane-1-carboxylic acid], in assay [2], the EC50 is 116 nM.
With `COc1cc(/C(F)=C/c2cccc(-c3cccc(NC(=O)c4nc5c(n4C)CCN(CCC46CCC(C(=O)O)(CC4)C6)C5)c3Cl)c2Cl)ncc1CN1CCO[C@H](CO)C1` [Example 70, (S,Z)-4-(2-(2-((2,2′-dichloro-3′-(2-fluoro-2-(5-((2-(hydroxymethyl)morpholino)methyl)-4-methoxypyridin-2-yl)vinyl)-[1,1′-biphenyl]-3-yl)carbamoyl)-1-methyl-1,4,6,7-tetrahydro-5H-imidazo[4,5-c]pyridin-5-yl)ethyl)bicyclo[2.2.1]heptane-1-carboxylic acid], in assay [2], the EC50 was 128 nM.
`COc1cc(/C(F)=C/c2cccc(-c3cccc(NC(=O)c4nc5c(n4C)CCN(CCC46CCC(C(=O)O)(CC4)C6)C5)c3Cl)c2Cl)ncc1CN1CC[C@@](C)(O)C1` [Example 71, (R,Z)-4-(2-(2-((2,2′-dichloro-3′-(2-fluoro-2-(5-((3-hydroxy-3-methylpyrrolidin-1-yl)methyl)-4-methoxypyridin-2-yl)vinyl)-[1,1′-biphenyl]-3-yl)carbamoyl)-1-methyl-1,4,6,7-tetrahydro-5H-imidazo[4,5-c]pyiidin-5-yl)ethyl)bicyclo[2.2.1]heptane-1-carboxylic acid]: the EC50 in assay [2] was 42.1 nM.
In the case of `COc1cc(/C(F)=C/c2cccc(-c3cccc(NC(=O)c4nc5c(n4C)CCN(CCC46CCC(C(=O)O)(CC4)C6)C5)c3Cl)c2Cl)ncc1CN1CC[C@](C)(O)C1` [Example 72, (S,Z)-4-(2-(2-((2,2′-dichloro-3′-(2-fluoro-2-(5-((3-hydroxy-3-methylyrrolidin-1-yl)methyl)-4-methoxypyridin-2-yl)vinyl)-[1,1′-biphenyl]-3-yl)carbamoyl)-1-methyl-1,4,6,7-tetrahydro-5H-imidazo[4,5-c]pyridin-5-yl)ethyl)bicyclo[2.2.1]heptane-1-carboxylic acid], the EC50 in assay [2] worked out at 116 nM.
Same read-out and setting: under `COc1cc(/C(F)=C/c2cccc(-c3cccc(NC(=O)c4nc5c(n4C)CCN(CCC46CCC(C(=O)O)(CC4)C6)C5)c3Cl)c2Cl)ncc1CN1CC[C@H](C(=O)O)C1` [Example 74, (S,Z)-1-((6-(2-(3′-(5-(2-(4-carboxybicyclo[2.2.1]heptan-1-yl)ethyl)-1-methyl-4,5,6,7-tetrahydro-1H-imidazo[4,5-c]pyridine-2-carboxamido)-2,2′-dichloro-[1,1′-biphenyl]-3-yl)-1-fluorovinyl)-4-methoxypyridin-3-yl)methyl)pyrrolidine-3-carboxylic acid] stands 136 nM; under `COc1cc(/C(F)=C/c2cccc(-c3cccc(NC(=O)c4nc5c(n4C)CCN(CCC46CCC(C(=O)O)(CC4)C6)C5)c3Cl)c2Cl)ncc1CN1CC[C@](C)(C(=O)O)C1` [Example 76, (S,Z)-1-((6-(2-(3′-(5-(2-(4-carboxybicyclo[2.2.1]heptan-1-yl)ethyl)-1-methyl-4,5,6,7-tetrahydro-1H-imidazo[4,5-c]pyridine-2-carboxamido)-2,2′-dichloro-[1,1′-biphenyl]-3-yl)-1-fluorovinyl)-4-methoxypyridin-3-yl)methyl)-3-methylpyrrolidine-3-carboxylic acid], 98.1 nM; under `COc1cc(/C(F)=C/c2cccc(-c3cccc(NC(=O)c4nc5c(n4C)CCN(CCC46CCC(C(=O)O)(CC4)C6)C5)c3Cl)c2Cl)ncc1CN1CC2CCC1C2` (stereo not drawn) [Example 77, (Z)-4-(2-(2-((3′-(2-(5-((2-azabicyclo[2.2.1]heptan-2-yl)methyl)-4-methoxypyridin-2-yl)-2-fluorovinyl)-2,2′-dichloro-[1,1′-biphenyl]-3-yl)carbamoyl)-1-methyl-1,4,6,7-tetrahydro-5H-imidazo[4,5-c]pyridin-5-yl)ethyl)bicyclo[2.2.1]heptane-1-carboxylic acid], 54.4 nM.
With `COc1cc(/C(F)=C/c2cccc(-c3cccc(NC(=O)c4nc5c(n4C)CCN(CCC46CCC(C(=O)O)(CC4)C6)C5)c3Cl)c2Cl)ncc1CN1CC[C@H](C)C1` [Example 78, (S,Z)-4-(2-(2-((2,2′-dichloro-3′-(2-fluoro-2-(4-methoxy-5-((3-methylpyrrolidin-1-yl)methyl)pyridin-2-yl)vinyl)-[1,1′-biphenyl]-3-yl)carbamoyl)-1-methyl-1,4,6,7-tetrahydro-5H-imidazo[4,5-c]pyridin-5-yl)ethyl)bicyclo[2.2.1]heptane-1-carboxylie acid], in assay [2], the EC50 was determined as 56.5 nM.
